Assay results taken from publication PMC10415494, “Ga(III) pyridinecarboxylate complexes: potential analogues of the second generation of therapeutic Ga(III) complexes?” (Journal of Biological Inorganic Chemistry, 2023).

Legend:
[1] = tested on: Escherichia coli (E. coli) CCM 3988; assay: Antimicrobial activity, macrodilution method (growth by A590); type: cell-based; conditions: for IC50: Bacteria, MHB, 37 °C, DMSO max 1.0 vol. %, read-out: IC50 E. coli; for partial inhibition of E. coli growth: concentration not given
Description: (§1) The antimicrobial activities of gallium(III) complexes GaPic, GaDpic, GaChel, GaCldpic, free ligands (HPic, H2Dpic, H2Chel, H2Cldpic) and positive controls (cefoxitin (C), ampicillin (A) and piperacillin (P)) were evaluated by macrodilution method using G^+ bacteria (Firmicutes) Staphylococcus aureus (S. aureus) CCM 3953 (Czech Collection of Microorganisms), G^− bacteria (γ-proteobacteria) Escherichia coli (E. coli) CCM 3988, Pseudomonas aeruginosa (P. aeruginosa) CCM 1959 (Czech Collection of Microorganisms) and the yeast Candida parapsilosis (C. parapsilosis) ATCC 22019 (American type culture collection). Cultures of bacteria (in Mueller–Hinton broth, MHB) and yeasts (in Sabouraud’s growth medium, SB) were incubated under shaking (250 rpm) at 37 °C. The growth of bacteria and yeasts was evaluated by measuring the absorbance of the growing cultures (A590) until the cultures reached the stationary growth phase. The effects of gallium(III) complexes on the growth of filamentous fungi Rhizopus oryzae (R. oryzae) CCM F-8284, Alternaria alternata (A. alternata) CCM F-128 and Microsporum gypseum (M. gypseum) CCM F-8342 (Czech Collection of Microorganisms) were observed by macrodilution method on solidified potato-dextrose growth medium (PDA). During culturing, the diameters of growing fungal colonies were measured at regular intervals. Briefly, the antimicrobial activity (bacteria and yeasts) gallium(III) complexes/ ligands were added to the microbial culture at the beginning of the cultivation-to the lag phase. Pure gallium(III) complexes/ligands were dissolved in DMSO. The final concentration of DMSO never exceeded 1.0 vol. % neither in control nor treated samples. Concentration of gallium(III) complexes used in experimental work for evaluation of antimicrobial activity was used in the range of 0.05–2 mM, for the free ligands in the range of 0.5–2.0 mM in all experiments. […] The IC50 values were evaluated from toxicity curves. All the obtained results of antimicrobial activity were compared to the activity of Ga(NO3)3.

[2] = tested on: Staphylococcus aureus (S. aureus) CCM 3953; assay: as above; type: cell-based; conditions: for IC50: Bacteria, MHB, 37 °C, DMSO max 1.0 vol. %, read-out: IC50 S. aureus; for inhibition of S. aureus growth: complex at 2 mM
Description: as §1

[3] = tested on: Pseudomonas aeruginosa (P. aeruginosa) CCM 1959; assay: as above; type: cell-based; conditions: for IC50: Bacteria, MHB, 37 °C, DMSO max 1.0 vol. %, read-out: IC50 P. aeruginosa
Description: as §1

[4] = tested on: Candida parapsilosis (C. parapsilosis) ATCC 22019; assay: Antimicrobial activity, macrodilution method (yeast, growth by A590); type: cell-based; conditions: Yeast; Sabouraud's growth medium, 37 °C; read-out: IC50 C. parapsilosis
Description: as §1

[5] = tested on: Rhizopus oryzae (R. oryzae) CCM F-8284; assay: Growth of filamentous fungi, macrodilution method on solidified PDA (colony diameter); type: cell-based; conditions: solidified potato-dextrose growth medium; read-out: IC50 R. oryzae
Description: as §1

[6] = tested on: Alternaria alternata (A. alternata) CCM F-128; assay: as above; type: cell-based; conditions: Filamentous fungi; solidified potato-dextrose growth medium; read-out: IC50 A. alternata
Description: as §1

[7] = tested on: Microsporum gypseum (M. gypseum) CCM F-8342; assay: as above; type: cell-based; conditions: Filamentous fungi; solidified potato-dextrose growth medium; read-out: IC50 M. gypseum
Description: as §1

[8] = tested on: HeLa (human cervical adenocarcinoma); assay: MTS antiproliferative assay
Description: (§2) Cell culture the cell lines A2058 (human metastatic melanoma), BLM (human metastatic melanoma), HCT116 (human colorectal carcinoma), HeLa (human cervical adenocarcinoma), Jurkat (human leukaemic T cell lymphoma). […] Cells were maintained in standard conditions with an atmosphere containing 5% CO2 at 37 °C.
(§3) The antiproliferative activity of Ga(III) complexes GaPic, GaDpic, GaChel, GaCldpic, free ligands (HPic, H2Dpic, H2Chel, H2Cldpic) and cisplatin (cisPt) were evaluated by colorimetric microculture MTS (3-(4,5-dimethylthiazol-2-yl)-5-(3-carboxymethoxyphenyl)-2-(4-sulfophenyl)-2H tetrazolium) assay (Promega, Madison, WI, USA). Cancer and non-cancer cells were seeded at density 5 × 10^3 cells/well in 96-well polystyrene microplates. Twenty-four hours after cell seeding, different concentrations (1.0—100.0 µM) of the compounds were tested. After 72 h of incubation, 10 µL of MTS was added to each well. After an additional 2 h, cell proliferation was evaluated by measuring of absorbance at wavelength 490 nm using the automated Cytation™ 3 Cell Imaging Multi-Mode Reader (Biotek, Winooski, VT, USA). The absorbance of control wells was taken as 100%, and the results were expressed as a percent of untreated control. IC50 values were calculated from MTS analyses.

[9] = tested on: PaTu 8902 (human pancreatic adenocarcinoma); assay: MTS antiproliferative assay
Description: as §2, §3

[10] = tested on: HCT116 (human colorectal carcinoma); assay: MTS antiproliferative assay
Description: as §2, §3

[11] = tested on: Jurkat (human leukaemic T cell lymphoma); assay: MTS antiproliferative assay
Description: as §2, §3

[12] = tested on: MDA-MB-231 (human mammary gland adenocarcinoma); assay: MTS antiproliferative assay
Description: as §2, §3

[13] = tested on: A2058 (human metastatic melanoma); assay: MTS antiproliferative assay
Description: as §2, §3

[14] = Complex stability in biological testing medium by time-dependent 1H NMR; type: physicochemical; conditions: 300 K, over 96 h
Description: Nuclear magnetic resonance (NMR) data were collected on a Varian VNMRS 600 spectrometer operating at 599.87 MHz for ^1H. The concentration of all samples was approximately 3 mg/0.6 mL of 1% DMSO-d6/D2O. For comparison, the spectra of pure acids were also measured, while the pH of the solution of acids was adjusted to the same value as the solution of the complexes. The chemical shifts were referenced to the TSP (3-(trimethylsilyl)propionic-2,2,3,3-d4 acid sodium salt) peak (^1H NMR 0.00 ppm). The NMR data were recorded at 300 K, with chemical shifts δ reported in parts per million and coupling constants J in Hertz. All data were analysed using MestReNova 12.0.0 (2017) software. The stability in 1% DMSO-d6/D2O was determined for all samples. […]

[15] = tested on: human dermal fibroblasts (HDF); assay: in vitro
Description: as §2, §3

[16] = molecular target: T1, bovine serum albumin (BSA) (Bos taurus, UniProt P02769); assay: BSA fluorescence quenching (Stern-Volmer); type: binding; conditions: 0.01 M PBS buffer pH 7.4, 25 °C, λex = 280 nm
T1 construct: purchased Sigma-Aldrich Chemicals
Description: Fluorescence measurements were carried out on a Varian Cary Eclipse spectrofluorometer. The quenching studies of BSA with the Ga(III) complexes were investigated to determine whether they were able to quench fluorescence of BSA. All measurements were performed at 25 °C in 0.01 M PBS buffer (pH 7.4). The fluorescence spectra were measured at an excitation wavelength of 280 nm, with a slit width of 10 nm for the excitation and emission beams, in the range of 300–450 nm and analysed according to the classical Stern–Volmer Equation: F0/F=1+KSVQ where F0 and F are the fluorescence intensities in the absence and the presence of the quencher, respectively, KSV is the Stern–Volmer constant, and [Q] is the concentration of quencher.

[17] = Description: The stock solution of HPic and H2Dpic was prepared by dissolving in demineralized water (c(ligand) = 0.02 M). The gallium(III) ion solution was prepared from anhydrous gallium(III) nitrate (c(Ga^3+) = 0.05 M) and was standardized by back titration of excess of EDTA with zinc(II). Decarbonated potassium hydroxide solution (approx. 0.2 M) was used as a titrant that was standardized by potassium hydrogen phthalate (c(KHP) = 0.1 M). Standard inert electrolyte of nitric acid was used in all titrations (c(HNO3) = 0.03 M, I(HNO3/KNO3) = 0.1 M). Potentiometric measurements were carried out using a TitroLine 7000 dosage system with a BlueLine combination electrode (SI Analytics) in a glass vessel (5 mL) thermostated at 25 ± 0.1 °C at an ionic strength I(KNO3) = 0.1 M. Inert atmosphere was ensured by a constant flow of a nitrogen gas. Precise calibration of the electrode was carried out by the titration of 0.03 M HNO3 with 0.2 M KOH in the range –log[H^+] = 1.8–12.0, with the pH-meter yielding E values. The relation between E and –log[H^+] is expressed by Eq. (1) where the term E^0 contains the standard potentials of the electrode and the contribution of inert ions to the liquid-junction potential. The value S corresponds to the Nernstian slope, the value of which should be close to the theoretical value, and j1[H^+] and j2[OH^–] = j2Kw/[H^+] are contributions of the H^+ and OH^– ions, respectively, to the liquid-junction potential. The pKw value was 13.78 in Eq. (1).1 E=E^0-S-logH^++j1H^++j2Kw/H^+
The parameters j1 and j2 cause deviation from linear dependence between E and –log[H^+] only in strongly acidic and strongly alkaline solutions. The picolinic and dipicolinic acid protonation constants were determined with ligand concentration 0.004 M. The stability constants in the Ga-HPic and Ga-H2Dpic binary system were determined by the ligand concentrations 0.004 and the Ga^3+ concentration was 0.004, 0.002 and 0.001 M in dependence on the ligand to metal ratio.
The protonation constants β110, β210 are the concentration constants and are defined by β110 = [HL]/ [H][L], β210 = [H2L]/ [H]^2[L] (pK2 = logβ110, pK1 = logβ210- logβ110); the stability constants are defined by βrqp = [HrLqMp]/[H]^r[L]^q[M]^p. The equilibrium constants were obtained by fitting the titration data with OPIUM [23]. The following hydrolysis constants were used for the calculations: βpr = [Mp(OH)r^3−r][H]^r/[M]^p; log β11 = − 2.74; log β12 = − 7.0; log β13 = − 11.96; log β14 = − 15.52 [24].

T1 sequence (P02769 25-607): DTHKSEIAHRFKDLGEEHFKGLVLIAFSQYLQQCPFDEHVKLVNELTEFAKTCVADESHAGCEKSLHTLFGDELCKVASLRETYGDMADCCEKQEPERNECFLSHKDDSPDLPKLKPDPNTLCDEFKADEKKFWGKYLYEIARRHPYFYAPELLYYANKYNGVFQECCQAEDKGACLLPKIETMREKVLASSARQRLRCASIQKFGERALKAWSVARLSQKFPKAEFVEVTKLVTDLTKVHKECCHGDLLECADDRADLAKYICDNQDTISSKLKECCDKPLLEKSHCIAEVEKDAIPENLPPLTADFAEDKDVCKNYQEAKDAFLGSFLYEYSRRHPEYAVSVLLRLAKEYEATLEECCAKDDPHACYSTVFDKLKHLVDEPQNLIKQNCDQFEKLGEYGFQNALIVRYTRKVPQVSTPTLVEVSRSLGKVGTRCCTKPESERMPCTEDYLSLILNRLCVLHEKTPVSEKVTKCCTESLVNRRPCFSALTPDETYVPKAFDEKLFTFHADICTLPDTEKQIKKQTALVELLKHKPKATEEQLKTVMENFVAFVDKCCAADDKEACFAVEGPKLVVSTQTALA

Row | SMILES | IC50 [1] | IC50 [2] | IC50 [3] | IC50 [4] | IC50 [5] | IC50 [6] | IC50 [7] | IC50 [8] | IC50 [9] | IC50 [10] | IC50 [11] | IC50 [12] | IC50 [13] | stability in 1% DMSO-d6/D2O solution [14] | partial inhibition of E. coli growth [1] | inhibition of S. aureus growth [2] | IC50 [15] | further results
1 | O=[N+]([O-])[O-].O=[N+]([O-])[O-].O=[N+]([O-])[O-].[Ga+3] [Ga(NO3)3, gallium(III) nitrate] | > 500 µM | > 500 µM | > 500 µM | > 500 µM | > 500 µM | > 500 µM | > 500 µM |  |  |  |  |  |  |  |  |  |  | 
2 | O.O.O.O.O.O.O=C([O-])c1cc(O)cc(C(=O)[O-])n1.O=C([O-])c1cc(O)cc(C(=O)[O-])n1.[Ga+3].[Ga+3].[OH-].[OH-] [GaChel, [Ga(Chel)(H2O)(OH)]2·4H2O] | > 2000 µM | 2000 µM | 500 µM | > 2000 µM | > 2000 µM | > 2000 µM | > 2000 µM | 1410 ± 155 µM | 610 ± 54 µM | 406 ± 86.8 µM | 418 ± 100 µM | 199 ± 45.6 µM | 415 ± 4 µM | stable | 9% | 50% | 347 ± 25.5 µM | MIC100 (MIC) P. aeruginosa ([3]; growth fully inhibited (100%)): 1000 µM
3 | O.O=C([O-])c1cccc(C(=O)[O-])n1.O=C([O-])c1cccc(C(=O)[O-])n1.[Ga+3].[OH3+] [GaDpic, H3O[Ga(Dpic)2]·H2O] | > 2000 µM | > 2000 µM |  | > 2000 µM | > 2000 µM | > 2000 µM | > 2000 µM | 1140 ± 135 µM | 509 ± 32.6 µM | 1240 ± 58.9 µM | 325 ± 34.9 µM | 308 ± 67.8 µM | 287 ± 59.3 µM | stable | 30% | 24% | 288 ± 26.6 µM | Stern–Volmer binding constant Ksv BSA [16]: 68500 M⁻¹
4 | O=C([O-])c1cccc(C(=O)[O-])n1.O=C([O-])c1cccc(C(=O)[O-])n1.[Ga+3].[OH-] [[Ga(Dpic)2(OH)]^2−] |  |  |  |  |  |  |  |  |  |  |  |  |  |  |  |  |  | stability constant logβ-121 [17]: 11.08(4)
5 | O=C([O-])c1cccc(C(=O)[O-])n1.O=C([O-])c1cccc(C(=O)[O-])n1.[Ga+3] [[Ga(Dpic)2]^−] |  |  |  |  |  |  |  |  |  |  |  |  |  |  |  |  |  | stability constant logβ021 [17]: 15.42(9)
